Counter-ions that a name gives are not always drawn.
The compounds below were run against tubulin (Ovis aries, UniProt D0VWY9+D0VWZ0) (assay: nanoDSF screen, shift of polymerization temperature at about […]). Conditions: not given.
tubulin, sequence (D0VWY9 entry or part of it): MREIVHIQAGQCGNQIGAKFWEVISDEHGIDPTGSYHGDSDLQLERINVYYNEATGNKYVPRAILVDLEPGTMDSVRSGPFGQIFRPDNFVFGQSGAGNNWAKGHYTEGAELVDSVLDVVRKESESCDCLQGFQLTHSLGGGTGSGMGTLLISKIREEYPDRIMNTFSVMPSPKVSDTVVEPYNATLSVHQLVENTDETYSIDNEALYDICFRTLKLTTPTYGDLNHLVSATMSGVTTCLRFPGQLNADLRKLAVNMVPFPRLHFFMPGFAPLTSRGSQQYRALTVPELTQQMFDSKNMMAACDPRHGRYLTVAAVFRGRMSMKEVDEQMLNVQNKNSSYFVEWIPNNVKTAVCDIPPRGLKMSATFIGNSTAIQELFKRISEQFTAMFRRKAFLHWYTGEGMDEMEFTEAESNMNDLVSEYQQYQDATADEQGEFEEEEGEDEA
tubulin, sequence (D0VWZ0 entry or part of it): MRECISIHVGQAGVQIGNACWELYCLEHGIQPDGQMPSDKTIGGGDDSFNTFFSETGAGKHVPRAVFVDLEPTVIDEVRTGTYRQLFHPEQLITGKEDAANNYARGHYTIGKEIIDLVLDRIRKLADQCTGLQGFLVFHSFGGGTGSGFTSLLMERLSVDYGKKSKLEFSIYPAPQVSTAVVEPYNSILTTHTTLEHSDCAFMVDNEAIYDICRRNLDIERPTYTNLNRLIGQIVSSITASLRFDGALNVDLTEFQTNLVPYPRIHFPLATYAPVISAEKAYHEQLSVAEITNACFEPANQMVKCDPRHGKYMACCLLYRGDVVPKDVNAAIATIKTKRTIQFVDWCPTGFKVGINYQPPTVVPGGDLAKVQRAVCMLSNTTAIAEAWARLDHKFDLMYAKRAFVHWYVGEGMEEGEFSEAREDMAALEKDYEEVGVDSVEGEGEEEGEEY
Format: biochemical
`CCCSc1ccc2nc(NC(=O)OC)[nH]c2c1` [ABZ, Albendazole] gave a ΔTm at 50 µM of 6.4 °C. In the case of `COC(=O)Nc1nc2ccc(C(=O)c3cccs3)cc2[nH]1` [NCZ, Nocodazole], the ΔTm at 50 µM is reported as 6 °C.

What follows are compounds tested on U87MG (assay: cells). Conditions: Homo sapiens, U-87 MG, 72 h.
Parameters: MTT viability assay on U87MG glioblastoma cells
Protocol: Glioblastoma cell culture routines, viability, and proliferation assays were performed as previously described. U87MG cells were maintained in complete MEM media supplemented with 10% FBS and 2 mM L-glutamine (Invitrogen, Paris, France). For cytotoxicity assays, cells were counted and plated in 96-well flat-bottom plates (50,000 cells/mL, 5000 cells per well). After 24 h, the cells were treated with increasing concentrations of the MTAs (0, 1, 5, 10, and 20–40 μM) in a vehicle solution, containing 0.05% DMSO. All concentrations were done in triplicates. The surviving cells were quantified after 72 h by the tetrazolium bromide MTT-assay, according to the manufacturer’s instructions. After cell lysis, the optical density was measured at 600 nm using a Multiskan MS Thermo plate reader (LabSystems, Waltham, MA, USA).
In the case of `O[C@@H](c1cc(C(F)(F)F)nc2c(C(F)(F)F)cccc12)[C@H]1CCCCN1` (racemic) [MFQ, Mefloquine], the IC50 is reported as 11.6 ± 1.2 µM. With `CCCSc1ccc2nc(NC(=O)OC)[nH]c2c1` [ABZ, Albendazole] the IC50 was 0.3 µM. In the case of `C[C@@H](O[C@H]1OCCN(Cc2n[nH]c(=O)[nH]2)[C@H]1c1ccc(F)cc1)c1cc(C(F)(F)F)cc(C(F)(F)F)c1` [APT, Aprepitant], the IC50 is reported as 41.8 ± 31.8 µM. With `C[C@H]1[C@H](OC(=O)CCC(=O)O)O[C@@H]2O[C@@]3(C)CC[C@H]4[C@H](C)CC[C@@H]1[C@@]24OO3` [ASN, Artesunate] the IC50 was 24 ± 4.1 µM. Work on `CCc1oc2ccccc2c1C(=O)c1ccc(O)cc1` [BZ, Benzarone] yielded an IC50 of 7.4 ± 0.7 µM. Compound `CCc1oc2ccccc2c1C(=O)c1cc(Br)c(O)c(Br)c1` [BZB, Benzbromarone] has an IC50 of 62.1 ± 2.8 µM. With `Nc1cc(C(Cl)=C(Cl)Cl)c(S(N)(=O)=O)cc1S(N)(=O)=O` [CLS, Clorsulon] the IC50 was 66.8 ± 13.3 µM. For `CN(C)CC/C=C1/c2ccccc2Sc2ccc(Cl)cc21` [CPX, Chlorprothixene], the IC50 was 27.6 ± 2.2 µM. For `CN(C)CCCN1c2ccccc2Sc2ccc(Cl)cc21` [CPZ, Chlorpromazine], the IC50 was 4.5 ± 0.5 µM. In the case of `Oc1ccc(Cl)cc1Cc1cc(Cl)ccc1O` [DCP, Dichlorophen], the IC50 is reported as 7.7 ± 1.2 µM. `N#CC(c1ccc(Cl)cc1)c1c(Cl)cc(-n2ncc(=O)[nH]c2=O)cc1Cl` (stereo not drawn) [DCZ, Diclazuril] was tested, and the IC50 was 48.9 ± 6 µM. In the case of `C/C=C(/C(=C/C)c1ccc(O)cc1)c1ccc(O)cc1` [DE, Dienestrol], the IC50 is reported as 23.6 ± 1 µM. Compound `CCN(CC)C(=S)SSC(=S)N(CC)CC` [DFM, Disulfiram] has an IC50 of 12 ± 1.6 µM. Compound `O=c1c2ccccc2[se]n1-c1ccccc1` [EBS, Ebselen] has an IC50 of 50.9 ± 32.7 µM. For `C[C@]12CC[C@@H]3c4ccc(O)cc4CC[C@H]3[C@@H]1CC[C@@H]2O` [ED, 17β-estradiol], the IC50 was 30.7 ± 1.9 µM. For `C#C[C@]1(O)CC[C@H]2[C@@H]3CCc4cc(O)ccc4[C@H]3CC[C@@]21C` [EES, Ethinylestradiol], the IC50 was 15.7 ± 0.8 µM. Work on `O=C1Nc2ccc(Cl)cc2[C@@](C#CC2CC2)(C(F)(F)F)O1` [EFV, Efavirenz] yielded an IC50 of 26.7 ± 2.6 µM. `COC(=O)Nc1nc2ccc(Sc3ccccc3)cc2[nH]1` [FBZ, Fenbendazole] gave an IC50 of 0.2 µM. Work on `CCOC(=O)C1=C(C)NC(C)=C(C(=O)OC)C1c1cccc(Cl)c1Cl` (stereo not drawn) [FDP, Felodipine] yielded an IC50 of 13.7 ± 4 µM. With `COC(=O)Nc1nc2cc(C(=O)c3ccc(F)cc3)ccc2[nH]1` [FLU, Flubendazol] the IC50 was 0.6 µM. With `OCCN1CCN(CC/C=C2/c3ccccc3Sc3ccc(C(F)(F)F)cc32)CC1` [FPX, Flupentixol] the IC50 was 9.8 ± 1.8 µM. In the case of `COC1=CC(=O)C[C@@H](C)[C@]12Oc1c(Cl)c(OC)cc(OC)c1C2=O` [GSF, Griseofulvin], the IC50 is reported as 24.4 ± 3.7 µM. `Oc1c(Cl)cc(Cl)c(Cl)c1Cc1c(O)c(Cl)cc(Cl)c1Cl` [HCP, Hexachlorophene] showed an IC50 of 5.1 ± 0.7 µM. `CC[C@H](c1ccc(O)cc1)[C@@H](CC)c1ccc(O)cc1` [Hexestrol] showed an IC50 of 20.2 ± 0.5 µM. With `Clc1ccc(C(Cn2ccnc2)OCc2c(Cl)cccc2Cl)c(Cl)c1` (stereo not drawn) [ICZ, Isoconazole] the IC50 was 33.1 ± 1.8 µM. For `C[C@]12C=CC(=O)C=C1CC[C@@H]1[C@@H]2CC[C@@]2(C)[C@H]1CC[C@]2(C)O` [MAS, Methandrostenolone], the IC50 was 58.7 ± 5.1 µM. In the case of `CN(C)c1ccc2nc3ccc(=[N+](C)C)cc-3sc2c1` [MB, Methylene Blue], the IC50 is reported as 64.2 ± 9.9 µM. `Clc1ccc(C(c2ccccc2Cl)C(Cl)Cl)cc1` (stereo not drawn) [MTT, Mitotane] gave an IC50 of 23.7 ± 2.7 µM. `COC(=O)Nc1nc2ccc(C(=O)c3cccs3)cc2[nH]1` [NCZ, Nocodazole] showed an IC50 of less than 0.1 µM. With `N=C(N)Nc1ccc(C(=O)Oc2ccc3cc(C(=N)N)ccc3c2)cc1` [NFM, Nafamostat] the IC50 was 45.2 ± 6.1 µM. `COC(=O)C1=C(C)NC(C)=C(C(=O)OCC(C)C)C1c1ccccc1[N+](=O)[O-]` (stereo not drawn) [NSD, Nisoldipine] showed an IC50 of 25.3 ± 1.6 µM. In the case of `CCOC(=O)C1=C(C)NC(C)=C(C(=O)OC)C1c1cccc([N+](=O)[O-])c1` (stereo not drawn) [NTD, Nitrendipine], the IC50 is reported as 36.8 ± 3.3 µM. For `CNCCC=C1c2ccccc2CCc2ccccc21` [NTP, Nortriptyline], the IC50 was 20.5 ± 1.5 µM. For `CCCOc1ccc2[nH]c(NC(=O)OC)nc2c1` [OBZ, Oxibendazol], the IC50 was 1.8 ± 0.3 µM. Work on `COC(=O)Nc1nc2cc([S+]([O-])c3ccccc3)ccc2[nH]1` (stereo not drawn) [OFZ, Oxfendazole] yielded an IC50 of 17 ± 1 µM. Compound `COc1ccc(C(=O)c2ccccc2)c(O)c1` [OXY, Oxybenzone] has an IC50 of 14.4 ± 7 µM. `CC(C)c1cccc(C(C)C)c1O` [PPF, Propofol] gave an IC50 of 26.6 ± 2.5 µM. For `OCCN1CCN(CCCN2c3ccccc3Sc3ccc(Cl)cc32)CC1` [PPZ, Perphenazine], the IC50 was 9.8 ± 0.4 µM. In the case of `CNCCCC1c2ccccc2C=Cc2ccccc21` [PTP, Protriptyline hydrochloride], the IC50 is reported as 17.7 ± 1.5 µM. For `c1ccc2c(c1)Nc1ccccc1S2` [PTZ, Phenothiazine], the IC50 was 60.2 ± 9.2 µM. `O=C1NCCN1CCN1CCC(c2cn(-c3ccc(F)cc3)c3ccc(Cl)cc23)CC1` [STD, Sertindole] showed an IC50 of 6.7 ± 0.2 µM. `Clc1ccc(C(Cn2ccnc2)OCc2csc3c(Cl)cccc23)c(Cl)c1` (stereo not drawn) [STZ, Sertaconazole nitrate] was tested, and the IC50 was 10.7 ± 1.3 µM. In the case of `Cc1cc2nc3ccc(N(C)C)cc3[s+]c2cc1N` [TBO, Tolonium (Toluidine Blue O)], the IC50 is reported as 6.3 ± 0.3 µM. For `Oc1cc(Cl)ccc1Oc1ccc(Cl)cc1Cl` [TCL, Triclosan], the IC50 was 11.6 ± 0.5 µM. `CSc1nc2cc(Cl)c(Oc3cccc(Cl)c3Cl)cc2[nH]1` [TCZ, Triclabendazole] showed an IC50 of 15.1 ± 0.9 µM. Compound `CCSc1ccc2c(c1)N(CCCN1CCN(C)CC1)c1ccccc1S2` [TEP, Thiethylperazine] has an IC50 of 8.4 ± 0.2 µM. In the case of `CN1CCN(CCCN2c3ccccc3Sc3ccc(C(F)(F)F)cc32)CC1` [TFP, Trifluoperazine], the IC50 is reported as 17.3 ± 3.2 µM. `CN(C)CCCN1c2ccccc2Sc2ccc(C(F)(F)F)cc21` [TFZ, Triflupromazine] gave an IC50 of 6.5 ± 0.6 µM. For `Cc1c(C)c2c(c(C)c1O)CCC(C)(COc1ccc(CC3SC(=O)NC3=O)cc1)O2` (stereo not drawn) [TGZ, Troglitazone], the IC50 was 39.5 ± 1 µM. For `CN(C)CCOc1ccc(/C(=C(/CCCl)c2ccccc2)c2ccccc2)cc1` [TMF, Toremifene], the IC50 was 13.3 ± 1.9 µM. In the case of `Clc1ccc(C(Cn2ccnc2)OCc2ccsc2Cl)c(Cl)c1` (stereo not drawn) [TOZ, Tioconazole], the IC50 is reported as 18.3 ± 1.4 µM. Compound `CNCCC=C1c2ccccc2C=Cc2ccccc21` [nCBP, Norcyclobenzaprine] has an IC50 of 15.2 ± 0.8 µM.

Source: PMC12406199, “NanoDSF Screening for Anti-tubulin Agents Uncovers New Structure–Activity Insights” (Journal of Medicinal Chemistry, 2025)
